EC50 data for ten compounds are collected here from patent US9630949B2, “Oxoazetidine derivatives, process for the preparation thereof and use thereof in human medicine and in cosmetics” (GALDERMA RESEARCH & DEVELOPMENT, priority 2008, dated 2017).

Structures are written as SMILES.

One test addresses hMC1R (Homo sapiens (Human), UniProt Q01726). The experiment in a line: Transactivation test: melanocortin receptors (pCRE-Luc luciferase reporter), hMC1R. The conditions noted are these: HEK293 transfected with pCRE-Luc and hMC1R; products tested alone (agonist), 6 h incubation; % activity vs NDP-MSH 10 nM; IA: inactive. The class given is cell-based. How it is done: (§1) Transactivation Test: Melanocortin Receptors
(§2) HEK293 lines are transfected with the pCRE-Luc and hMC1R, hMC3R, hMC4R or hMC5R vectors. The cells are cultured at 37° C., 5% CO2, in DMEM medium supplemented with 10% of foetal calf serum.
(§3) In the presence of an activator (agonist), the melanocortin receptor will activate the cAMP pathway which, via the CRE-Luc vector, will result in the synthesis of luciferase. After the addition of a lysis buffer containing a luminescent substrate for luciferase, it will be possible to measure the luminescence proportional to the degree of activation or of inhibition of the receptor.
(§4) The products are solubilized at 10 mM in DMSO. They are tested in the form of dose-response at a final DMSO concentration of 0.1%. The range comprising 10 points and one zero begins at 10 μM with 4-fold dilutions. For testing agonists, the products are tested alone. For determining the behaviour of antagonists, the products of interest are tested in the presence of 1 nM NDP-MSH (reference agonist). The cells are seeded at a rate of 5000 cells per well (384 well plate) in serum-free DMEM medium, and incubated overnight at 37° C., 5% CO2.
(§5) The products and the reference ligand (NDP-MSH) are added the following day, and the plates are again incubated for 6 h at 37° C., 5% CO2. After the addition of lysis buffer containing luciferin, the plates are read on a Top-Count instrument. The results are standardized as % activity using the 100% (cells+NDP-MSH at 10 nM) and 0% (cells alone) controls. An EC50 is calculated for each product using the XLFit software. The results are given in nM.

A further test deals with hMC4R (Homo sapiens (Human), UniProt P32245). The experiment in a line: Transactivation test: melanocortin receptors (pCRE-Luc luciferase reporter), hMC4R. The conditions noted are these: HEK293 transfected with pCRE-Luc and hMC4R; products tested alone (agonist), 6 h incubation; % activity vs NDP-MSH 10 nM; IA: inactive. The class given is cell-based. As for the experimental part:
as §1, §2, §3, §4, §5

hMC1R, sequence (Q01726 whole entry): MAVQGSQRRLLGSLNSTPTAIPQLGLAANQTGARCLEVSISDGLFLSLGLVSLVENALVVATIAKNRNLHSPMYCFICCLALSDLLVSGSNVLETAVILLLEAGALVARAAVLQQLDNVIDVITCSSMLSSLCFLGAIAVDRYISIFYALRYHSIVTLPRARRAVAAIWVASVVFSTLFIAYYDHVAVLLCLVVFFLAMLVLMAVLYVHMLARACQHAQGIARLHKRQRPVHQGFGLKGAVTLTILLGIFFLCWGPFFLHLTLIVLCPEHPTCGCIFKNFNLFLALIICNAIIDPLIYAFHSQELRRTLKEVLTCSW
hMC4R, sequence (P32245 whole entry): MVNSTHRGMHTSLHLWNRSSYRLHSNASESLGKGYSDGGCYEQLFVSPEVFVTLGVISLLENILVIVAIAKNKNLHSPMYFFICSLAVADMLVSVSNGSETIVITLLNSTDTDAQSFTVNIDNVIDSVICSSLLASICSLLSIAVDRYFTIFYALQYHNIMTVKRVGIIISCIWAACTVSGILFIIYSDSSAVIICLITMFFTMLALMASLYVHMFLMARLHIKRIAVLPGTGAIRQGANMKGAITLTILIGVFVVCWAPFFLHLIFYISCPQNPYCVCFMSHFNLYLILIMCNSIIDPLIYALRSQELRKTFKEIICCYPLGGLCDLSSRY

Regarding `CCCCCC1(c2ccccc2)CN(C(=O)[C@@H](Cc2ccc(Cl)cc2Cl)NC(=O)CCc2c[nH]cn2)C1` [Compound 58, N-[(R)-1-(2,4-dichlorobenzyl)-2-oxo-2-(3-pentyl-3-phenylazetidin-1-yl)ethyl]-3-(1H-imidazol-4-yl)propionamide], the EC50 (in general, the concentration that produces a half-maximal response) at hMC1R was determined as 2000 nM; on hMC4R, 500 nM.

Turning to `COc1ccc(C[C@@H](NC(=O)CCc2nc[nH]c2C)C(=O)N2CC(OCC=C(C)C)(c3ccccc3C)C2)cc1` [Compound 80, N-[(R)-1-(4-Methoxybenzyl)-2-[3-(3-methylbut-2-enyloxy)-3-o-tolylazetidin-1-yl]-2-oxoethyl)-3-(5-methyl-1H-imidazol-4-yl)propionamide], the figures for the EC50 on hMC1R and on hMC4R were 15 nM and 4000 nM, respectively.

Consider `CCCCCC1(c2ccccc2)CN(C(=O)[C@@H](Cc2cccc(F)c2)NC(=O)CCc2c[nH]cn2)C1` [Compound 56, N-[(R)-1-(3-fluorobenzyl)-2-oxo-2-(3-pentyl-3-phenylazetidin-1-yl)ethyl]-3-(1H-imidazol-4-yl)propionamide], for which the figures for the EC50 at hMC1R and at hMC4R were 4000 nM and 8000 nM, respectively.

`CCCCCC1(c2ccccc2)CN(C(=O)[C@@H](Cc2cccc(C(F)(F)F)c2)NC(=O)CCc2c[nH]cn2)C1` [Compound 50, N-[(R)-2-oxo-2-(3-pentyl-3-phenylazetidin-1-yl)-1-(3-trifluoromethylbenzyl)ethyl]-3-(1H-imidazol-4-yl)propionamide]: the results for the EC50 on hMC1R and at hMC4R were 1000 nM and 500 nM, respectively.

As to `CCCCOC1(c2ccccc2)CN(C(=O)[C@@H](Cc2ccc(Cl)cc2Cl)NC(=O)CCc2c[nH]cn2)C1` [Compound 19, N-[(R)-2-(3-butoxy-3-phenylazetidin-1-yl)-1-(2,4-dichlorobenzyl)-2-oxoethyl]-3-(1H-imidazol-4-yl)propionamide], the figures for the EC50 on hMC1R and on hMC4R were 2000 nM and 120 nM, respectively.

`CCCCOC1(c2ccccc2C)CN(C(=O)[C@@H](Cc2ccc(OC)cc2)NC(=O)CCc2c[nH]cn2)C1` [Compound 15, N-[(R)-2-(3-butoxy-3-o-tolylazetidin-1-yl)-1-(4-methoxybenzyl)-2-oxoethyl]-3-(1H-imidazol-4-yl)propionamide]: the figures for the EC50 on hMC1R and on hMC4R were 120 nM and 4000 nM, respectively.

On to `CCCCOC1(c2ccccc2C)CN(C(=O)[C@H](Cc2ccc(OC)cc2)NC(=O)CCc2c[nH]cn2)C1` [Compound 16, N-[(S)-2-(3-butoxy-3-o-tolylazetidin-1-yl)-1-(4-methoxybenzyl)-2-oxoethyl]-3-(1H-imidazol-4-yl)propionamide], for which the EC50 at hMC1R was determined as 2000 nM; at hMC4R it was 15000 nM.

As for `COc1ccc(C[C@@H](NC(=O)CCc2c[nH]cn2)C(=O)N2CC(OCC3CCCCC3)(c3ccccc3C)C2)cc1` [Compound 77, N-[(R)-2-(3-Cyclohexylmethoxy-3-o-tolylazetidin-1-yl)-1-(4-methoxybenzyl)-2-oxoethyl]-3-(1H-imidazol-4-yl)propionamide], the figures for the EC50 on hMC1R and at hMC4R were 120 nM and 2000 nM, respectively.

Take `CCCCOC1(c2ccccc2)CN(C(=O)[C@@H](Cc2ccc(OC)cc2)NC(=O)CCc2c[nH]cn2)C1` [Compound 36, N-[(R)-2-(3-butoxy-3-phenylazetidin-1-yl)-1-(4-methoxybenzyl)-2-oxoethyl]-3-(1H-imidazol-4-yl)propionamide]: the values for the EC50 on hMC1R and on hMC4R were 1000 nM and 3000 nM, respectively.

`COc1ccc(C[C@H](NC(=O)[C@H](Cc2c[nH]cn2)NC(=O)c2ccccc2)C(=O)N2CC(OC(C)=O)(c3ccccc3C)C2)cc1` [Compound 5, 1-[(S)-2-[(S)-2-benzoylamino-3-(1H-imidazol-4-yl)propionylamino]-3-(4-methoxyphenyl)propionyl]-3-o-tolylazetidin-3-yl acetate]: the values for the EC50 at hMC1R and on hMC4R were 4000 nM and 8000 nM, respectively.
